Experiments:
recombinant NAT2 = biological target: T1, recombinant NAT2 (Homo sapiens, UniProt P11245); assay: N-Acetyltransferase (NAT) inhibition, fluorescent probe assay; type: biochemical; conditions: 30 min incubation; for NAT2 inhibition at 10 μM: positive control quercetin 10 μM (Figure 4)
T1 construct: purchased Corning Company, Corning, NY, USA 456282
T1 sequence (P11245 1-290): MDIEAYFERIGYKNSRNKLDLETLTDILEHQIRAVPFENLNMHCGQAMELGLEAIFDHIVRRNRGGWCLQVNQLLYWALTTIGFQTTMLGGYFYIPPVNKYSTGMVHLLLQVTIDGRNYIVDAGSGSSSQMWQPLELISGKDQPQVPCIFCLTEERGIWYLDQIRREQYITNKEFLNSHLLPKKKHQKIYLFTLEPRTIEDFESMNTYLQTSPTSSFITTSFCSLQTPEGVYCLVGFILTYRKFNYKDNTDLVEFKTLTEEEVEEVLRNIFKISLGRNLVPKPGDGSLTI

[1] = test system: H1975 human lung cancer cell line; assay: Cytotoxicity, CCK-8 cell viability assay; type: cell-based; conditions: for Cytotoxic activity against H1975 cells at 40 μM: screening (Figure S46); for IC50: Homo sapiens, NCI-H1975, H1975 cells, CCK-8 assay, 24 h drug treatment
Procedure: (§1) All the isolated meroterpenoids were evaluated for their cytotoxic activity against three human lung cancer cell lines (H1975, PC9, A549). […] Besides, 2 and 5 are also found to be active against H1975 and PC9 cells at 40 μM. With this, the cytotoxic potency of 2 and 5 toward three cancer cell lines were further determined using the CCK-8 assay.
(§2) The human NSCLC cell line (NCL-H1975) was purchased from Shanghai Cell Bank of Chinese Academy of Sciences, (Shanghai, China). PC9 and A549 were obtained from American Type Culture Collection (ATCC, Manassas, VA, USA). Cells were cultured in DMEM (Gibco, Grand Island, NY, USA) with 4.5 g/L glucose and 10% FBS (Gibco, Grand Island, NY, USA). Erlotinib used in the experiments were purchased from Selleck (Selleck Chemicals, Houston, TX, USA). Cytotoxicity was determined using the previously described method. Three human lung cancer cell lines were incubated in 96-well plates (5000 cells/well) respectively to attach overnight and then exposed to drug treatments for additional 24 h. And the CCK solution was added, after 2 h of incubation, the absorbance was measured at a wavelength of 450 nm. Cell viability was measured by a TransDetect® Cell Counting Kit (TransGen Biotech, Beijing, China). The IC50 values were calculated using the GraphPad Prism 5.0 (GraphPad Software, San Diego, CA, USA).

[2] = test system: PC9 human lung cancer cell line; assay: Cytotoxicity, CCK-8 cell viability assay; type: cell-based; conditions: for Cytotoxic activity against PC9 cells at 40 μM: screening (Figure S46); for IC50: Homo sapiens, PC-9, PC9 cells, CCK-8 assay, 24 h drug treatment
Procedure: as §1, §2

[3] = test system: A549 human lung cancer cell line; assay: Cytotoxicity, CCK-8 cell viability assay; type: cell-based; conditions: for Cytotoxic activity against A549 cells at 40 μM: screening (Figure S46); for IC50: Homo sapiens, A549 cells, CCK-8 assay, 24 h drug treatment
Procedure: as §1, §2

Row | SMILES | NAT2 inhibition at 10 μM (recombinant NAT2) | IC50 (recombinant NAT2; 0.5-10 μM, read-out: IC50 toward NAT2) [µM] | Cytotoxic activity against H1975 cells at 40 μM [1] | IC50 [1] [µM] | Cytotoxic activity against PC9 cells at 40 μM [2] | IC50 [2] [µM] | Cytotoxic activity against A549 cells at 40 μM [3] | IC50 [3] [µM]
1 | CC(C)=CCCC(C)=CCCC1=C[C@](c2cc(O)ccc2O)(c2oc(-c3cc(O)ccc3O)cc2CCC=C(C)CCC=C(C)C)OC1=O [(+)-1, (+)-gancochlearol C] | more potent than quercetin | 5.29 | – | – | – | – | – | –
2 | CC(C)=CCCC(C)=CCCC1=C[C@@](c2cc(O)ccc2O)(c2oc(-c3cc(O)ccc3O)cc2CCC=C(C)CCC=C(C)C)OC1=O [(−)-1, (−)-gancochlearol C] | could inhibit NAT2 | – | – | – | – | – | – | –
3 | CC(=O)OC/C(=C\Cc1cc(O)ccc1O)CC/C=C(\C)CCC=C(C)C [Compound 2, Gancochlearol D] | – | – | active | 32.4 | active | 40.6 | cytotoxic | 30.7
4 | CC(C)=CCC/C(C)=C/CC/C(=C/Cc1cc(O)ccc1O)CO [Compound 5, ganomycin F] | – | – | active | 19.5 | active | 35.7 | most active | 21.6
5 | C#Cc1cccc(Nc2ncnc3cc(OCCOC)c(OCCOC)cc23)c1 [Erlotinib, reference compound] | – | – | – | 7.66 | – | 0.085 | – | 4.59

From paper PMC6100301, “Cytotoxic and N-Acetyltransferase Inhibitory Meroterpenoids from Ganoderma cochlear” (Molecules : A Journal of Synthetic Chemistry and Natural …, 2018)
